# Experimental data taken from ChEMBL document CHEMBL3885861, “Open TG-GATES”.
# Species on record: Rattus norvegicus
# Experiment: Open TG-GATES - Regimen: Daily Repeat
# Assay type: toxicity, organism-based, Sprague-Dawley
# Set-up: regimen Daily Repeat, gender Male, age 6 weeks
# Conditions: in vivo, po, 0 mg/kg, […], route gavage, dose level Control; for KIDNEY_L / KIDNEY_R / KIDNEY_TOTAL: tissue Kidney; for LIVER: tissue Liver; for A/G / ALP / ALT / AST / BUN / CRE / Ca / Cl / DBIL / GLC / IP / K / LDH / Na / PL / RALB / TBIL / TC / TG / TP / gamma-GTP: tissue Plasma
smiles,measurement,setting,value
CC1=C(/C=C/C(C)=C/C=C/C(C)=C/CO)C(C)(C)CCC1 [RETINOL],Lym,"tissue Blood, time 28 day",83.8%
same,MCH,"tissue Blood, time 28 day",19.5 pg
same,MCHC,"tissue Blood, time 28 day",35.5%
same,MCV,"tissue Blood, time 28 day",54.8 fL
same,Mono,"tissue Blood, time 28 day",1.6%
same,Neu,"tissue Blood, time 28 day",12.6%
same,PT,"tissue Blood, time 28 day",15.8 s
same,Plat,"tissue Blood, time 28 day",113.8 x10_4/uL
same,RBC,"tissue Blood, time 28 day",778.2 x10_4/ul
same,Ret,"tissue Blood, time 28 day",2.6%
same,WBC,"tissue Blood, time 28 day",112.5 x10_2/uL
same,KIDNEY_L,time 7 day,1.1 g
same,KIDNEY_R,time 7 day,1.1 g
same,KIDNEY_TOTAL,time 7 day,2.2 g
same,KIDNEY_L,time 14 day,1.2 g
same,KIDNEY_R,time 14 day,1.2 g
same,KIDNEY_TOTAL,time 14 day,2.4 g
same,KIDNEY_L,time 28 day,1.4 g
same,KIDNEY_R,time 28 day,1.4 g
same,KIDNEY_TOTAL,time 28 day,2.7 g
same,LIVER,time 7 day,12.5 g
same,LIVER,time 14 day,13.8 g
same,LIVER,time 28 day,15.6 g
same,A/G,time 7 day,1.3
same,ALP,time 7 day,1920 IU/L
same,ALT,time 7 day,39.6 IU/L
same,AST,time 7 day,67.6 IU/L
same,BUN,time 7 day,17.4 mg/dL
same,CRE,time 7 day,0.2 mg/dL
same,Ca,time 7 day,10.7 mg/dL
same,Cl,time 7 day,106.4 meq/L
same,DBIL,time 7 day,0 mg/dL
same,GLC,time 7 day,189 mg/dL
same,IP,time 7 day,6.2 mg/dL
same,K,time 7 day,4.4 meq/L
same,LDH,time 7 day,219.6 IU/L
same,Na,time 7 day,142 meq/L
same,PL,time 7 day,145.2 mg/dL
same,RALB,time 7 day,3.2 g/dL
same,TBIL,time 7 day,0.002 mg/dL
same,TC,time 7 day,74 mg/dL
same,TG,time 7 day,109.6 mg/dL
same,TP,time 7 day,5.6 g/dL
same,gamma-GTP,time 7 day,1.2 IU/L
same,A/G,time 14 day,1.3
same,ALP,time 14 day,1383 IU/L
same,ALT,time 14 day,34.6 IU/L
same,AST,time 14 day,64.6 IU/L
same,BUN,time 14 day,17.4 mg/dL
same,CRE,time 14 day,0.2 mg/dL
same,Ca,time 14 day,10.8 mg/dL
same,Cl,time 14 day,106 meq/L
same,DBIL,time 14 day,0 mg/dL
same,GLC,time 14 day,201.8 mg/dL
same,IP,time 14 day,6.1 mg/dL
same,K,time 14 day,4.2 meq/L
same,LDH,time 14 day,226.8 IU/L
same,Na,time 14 day,142 meq/L
same,PL,time 14 day,152 mg/dL
same,RALB,time 14 day,3.2 g/dL
same,TBIL,time 14 day,0.004 mg/dL
same,TC,time 14 day,74.8 mg/dL
same,TG,time 14 day,103 mg/dL
same,TP,time 14 day,5.9 g/dL
same,gamma-GTP,time 14 day,1.2 IU/L
same,A/G,time 28 day,1.2
same,ALP,time 28 day,1062.8 IU/L
same,ALT,time 28 day,43.4 IU/L
same,AST,time 28 day,65.4 IU/L
same,BUN,time 28 day,16.8 mg/dL
same,CRE,time 28 day,0.2 mg/dL
same,Ca,time 28 day,10.6 mg/dL
same,Cl,time 28 day,106 meq/L
same,DBIL,time 28 day,0 mg/dL
same,GLC,time 28 day,194 mg/dL
same,IP,time 28 day,6.3 mg/dL
same,K,time 28 day,4 meq/L
same,LDH,time 28 day,145.6 IU/L
same,Na,time 28 day,141.2 meq/L
same,PL,time 28 day,147 mg/dL
same,RALB,time 28 day,3.3 g/dL
same,TBIL,time 28 day,0.026 mg/dL
same,TC,time 28 day,78 mg/dL
same,TG,time 28 day,100.8 mg/dL
same,TP,time 28 day,6.1 g/dL
same,gamma-GTP,time 28 day,1.2 IU/L
